Results from article PMC3498823 (Bioorganic & medicinal chemistry letters, 2011).
Entries after “also recorded” stand apart in the source; their conditions may differ.

Assays:
[1] = system: in vivo preclinical antipsychotic model; details: orally active; cited from earlier work
mGlu5 receptor [2] = molecular target: mGlu5 receptor (Rattus norvegicus, UniProt P31424); assay: triple-add functional calcium mobilization assay, mGlu5; format: cell-based; details: PAM, Ago-PAM, weak PAM or partial antagonist
mGlu5 receptor [3] = assay: as above; format: cell-based; details: PAM, Ago-PAM, weak PAM or partial antagonist
[4] = system: amphetamine induced hyperlocomotion in rats; assay: reversal of amphetamine-induced hyperlocomotion; format: in vivo; details: 30 mg/kg i.p.
mGlu5 receptor [5] = details: HTS lead; cited from earlier work

Sequence of mGlu5 receptor (P31424 21-1203): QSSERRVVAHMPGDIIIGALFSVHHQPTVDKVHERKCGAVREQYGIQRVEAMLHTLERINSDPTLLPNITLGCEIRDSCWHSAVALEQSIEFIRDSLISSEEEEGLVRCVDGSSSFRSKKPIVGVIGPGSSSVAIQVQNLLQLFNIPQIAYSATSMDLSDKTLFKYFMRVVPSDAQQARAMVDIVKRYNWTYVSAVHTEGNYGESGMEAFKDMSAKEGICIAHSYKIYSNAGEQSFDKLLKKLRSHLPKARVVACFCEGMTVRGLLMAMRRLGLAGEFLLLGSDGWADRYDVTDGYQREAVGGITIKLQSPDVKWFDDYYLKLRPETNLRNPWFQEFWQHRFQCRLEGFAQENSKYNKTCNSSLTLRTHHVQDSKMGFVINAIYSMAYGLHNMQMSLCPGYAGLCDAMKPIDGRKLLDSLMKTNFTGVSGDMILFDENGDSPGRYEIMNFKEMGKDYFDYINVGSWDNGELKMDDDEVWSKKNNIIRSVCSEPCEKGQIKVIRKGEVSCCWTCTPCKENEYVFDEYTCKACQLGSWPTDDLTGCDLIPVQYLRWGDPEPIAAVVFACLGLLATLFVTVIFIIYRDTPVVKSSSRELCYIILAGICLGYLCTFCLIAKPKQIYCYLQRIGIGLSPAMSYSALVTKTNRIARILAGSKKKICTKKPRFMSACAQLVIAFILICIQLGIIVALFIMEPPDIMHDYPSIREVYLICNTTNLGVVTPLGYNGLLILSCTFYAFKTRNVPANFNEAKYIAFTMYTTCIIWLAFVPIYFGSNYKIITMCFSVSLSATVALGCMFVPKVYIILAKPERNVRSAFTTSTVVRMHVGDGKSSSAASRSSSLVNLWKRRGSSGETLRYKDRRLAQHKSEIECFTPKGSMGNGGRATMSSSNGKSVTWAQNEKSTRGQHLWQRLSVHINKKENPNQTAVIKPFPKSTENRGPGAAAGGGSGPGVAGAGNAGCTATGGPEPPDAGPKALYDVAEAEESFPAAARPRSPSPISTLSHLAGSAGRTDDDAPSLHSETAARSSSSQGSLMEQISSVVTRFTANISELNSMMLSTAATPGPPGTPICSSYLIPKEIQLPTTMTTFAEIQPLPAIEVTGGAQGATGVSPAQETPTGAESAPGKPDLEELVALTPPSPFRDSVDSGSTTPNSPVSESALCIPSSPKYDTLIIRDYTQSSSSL
Sequence of mGlu5 receptor (Rattus norvegicus, UniProt P31424) (P31424 21-1203): as above

O=C(NC1CCC1)c1ccc(C#Cc2cccc(F)c2)nc1 [VU0360172]
efficacy in an in vivo preclinical antipsychotic model [1]: efficacious

O=C1c2ccc(C#Cc3cccc(F)c3)nc2CCN1CC1CC1 [10e]
Category (mode of pharmacology) (mGlu5 receptor [2]): partial antagonists; also recorded: Partial Antag

CCCCN1CCc2nc(C#Cc3cccc(F)c3)ccc2C1=O [10d]
Category (mode of pharmacology) (mGlu5 receptor [3]): Weak PAM

CN1CCc2nc(C#Cc3cccc(F)c3)ccc2C1=O [10b]
Category (mode of pharmacology) (mGlu5 receptor [2]): partial antagonists; also recorded: Partial Antag

O=C1c2ccc(C#Cc3ccccc3)cc2CCN1CC1CC1 [9f]
reversal of amphetamine-induced hyperlocomotion [4]: significant reversal

CCCN1CCc2cc(C#Cc3ccccc3)ccc2C1=O [9c]
reversal of amphetamine-induced hyperlocomotion [4]: significant reversal; also recorded: Reversal of amphetamine-induced hyperlocomotion

CC(C)CN1CCc2nc(C#Cc3cccc(F)c3)ccc2C1=O [10c]
Category (mode of pharmacology) (mGlu5 receptor [3]): Weak PAM

O=C(c1ccc(C#Cc2ccccc2)cc1)N1CCC(O)CC1 [VU0092273]
ligand efficiency (LE) (mGlu5 receptor [5]): ~0.5

O=C1NCCc2cc(C#Cc3ccccc3)ccc21 [9a]
reversal of amphetamine-induced hyperlocomotion [4]: significant reversal
